These results are taken from US20110105748A1, “Novel beta-phenyl-alpha-oxysubstituted propionic derivatives: process for its preparation and their use in the preparation of pharmaceutically important compounds” (priority 2001, published 2011).

For `CCOC(=O)[C@H](Cc1ccc(N)cc1)OCC` [Example 6, (S)-Ethyl 2-ethoxy-3-(4-aminophenyl)propionate], the melting point – broadly, the temperature, or range, at which the solid turns liquid – lay in the range of 74 to 76 °C.
